According to PMC11476342 (Cancers, 2024):
Where “and” joins values, the source holds several entries; their conditions need not be identical. Identical values can stand only once. Like-named read-outs stand apart in the source and are kept apart here.

Key:
J82 [1] = experiment: RT-qPCR gene expression; type: cell-based, human; details: 48 h; ENT 0.316 µM; JQ1 1 µM; ENT + JQ1 0.316 + 1 µM
Description: (§3) RNA was isolated using the RNeasy Mini Kit (Qiagen, Hilden, Germany). Subsequently, the RNA was transcribed into cDNA using the High-Capacity cDNA Reverse Transcription Kit (Thermo Scientific, Wesel, Germany). For an RT-PCR, GoTaq qPCR Master Mix (Promega, Fitchburg, WI, USA) and a CFX96 Real-Time System (BIO-RAD, Hercules, CA, USA) were used. The relative changes in gene expression were normalized to the control genes GUSB (beta-glucuronidase), TBP (TATA binding protein), and HPRT1 (hypoxanthine–guanine phosphoribosyltransferase) by Vandesompele method [54].

[2] = cited from earlier work
T24 LTT = experiment: MTT cell viability assay; type: cell-based, human
Method: (§1) The cell viability for determination of IC50 values and synergism studies was analyzed by MTT assay as previously described. […] For preincubation experiments, 1600 c/w (cells per well) for J82 and 1200 c/w for J82 cisR were used. After the incubation time, 25 µL MTT (3-(4,5-dimethylthiazol-2-yl)-2,5-diphenyltetrazolium bromide, Serva, Heidelberg, Germany) solution (5 mg/mL in phosphate-buffered saline) was added. The formazan was dissolved in 75 µL DMSO, and the absorption was measured at 540 nm and 690 nm with a microplate reader (ThermoFisher Multiskan, Thermo Scientific, Wesel, Germany).

J82 [3] = experiment: MTT cell viability assay; type: cell-based, human
Method: as §1

J82 cisR [4] = experiment: MTT cell viability assay; type: cell-based, human
Method: as §1

T24 = experiment: MTT cell viability assay; type: cell-based, human
Method: as §1

J82 cisR [5] = experiment: RT-qPCR gene expression; type: cell-based, human; details: 48 h; ENT 0.316 µM; JQ1 0.1 µM; ENT + JQ1 0.316 + 0.1 µM
Description: as §3

HBLAK = experiment: MTT cell viability assay, non-cancer cell line; type: cell-based, human
Method: as §1

HEK293 = experiment: MTT cell viability assay, non-cancer cell line; type: cell-based, human
Method: as §1

BRDs = test system: BRDs; design: method as in PMID 34582215; details: cited from earlier work
caspase 3/7 = experiment: Activation of caspase 3/7 (CellEvent, high content screening); type: cell-based, human; details: single treatment, all four cell lines (J82, J82 cisR, T24, T24 LTT)
Method: Activation of caspase 3/7 was examined using the CellEvent Caspase-3/7 green detection reagent (Thermo Scientific, Wesel, Germany) according to the manufacturer’s instructions. The cells were seeded in 96-well-plates (Corning, Kaiserslautern, Germany) and treated with the indicated compounds for 48 h (J82 1600 c/w; J82 cisR 800 c/w; T24 1200 c/w; T24 LTT 3000 c/w). […] The supernatant was aspirated and a solution of CellEvent Caspase 3/7 green detection reagent (PBS, 1% heat inactivated fetal calf serum) was added to the cells for a final concentration of 2 µM. Hoechst 33342 (10 mg/mL in water, Sigma-Aldrich, Steinheim, Germany) was used for nuclei staining. The cells were incubated for 30 min at 37 °C and 5% CO2 before imaging by using the Thermo Fischer ArrayScan XTI high content screening (HCS) system with a 10 × magnification (Thermo Scientific, Wesel, Germany).

HDAC 8 = target: T1, HDAC 8 (Homo sapiens, UniProt Q9BY41); experiment: Enzyme HDAC inhibition assay; type: biochemical; details: recombinant enzyme, Boc-Lys-(Tfa)-AMC; read-out: HDAC8 IC50 ± SD
T1 construct: purchased Reaction Biology Corp (Malvern, PA, USA) KDA-21-481
T1 sequence (Q9BY41 1-377): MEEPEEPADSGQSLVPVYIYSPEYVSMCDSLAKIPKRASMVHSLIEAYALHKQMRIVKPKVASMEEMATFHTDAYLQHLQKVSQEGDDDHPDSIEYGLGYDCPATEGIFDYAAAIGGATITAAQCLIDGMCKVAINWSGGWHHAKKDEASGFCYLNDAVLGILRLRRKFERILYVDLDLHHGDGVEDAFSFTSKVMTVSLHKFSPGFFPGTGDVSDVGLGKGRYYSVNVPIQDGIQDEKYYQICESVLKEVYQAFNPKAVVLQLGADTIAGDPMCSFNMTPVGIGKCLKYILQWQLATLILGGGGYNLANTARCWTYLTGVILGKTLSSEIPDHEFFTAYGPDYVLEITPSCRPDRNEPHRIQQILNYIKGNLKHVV
Description: (§2) The human recombinant enzymes were ordered from Reaction Biology Corp (Malvern, PA, USA).

HDAC 4 = target: T2, HDAC 4 (Homo sapiens, UniProt P56524); experiment: Enzyme HDAC inhibition assay; type: biochemical; details: recombinant enzyme, Boc-Lys-(Tfa)-AMC; read-out: HDAC4 IC50 ± SD
T2 construct: purchased Reaction Biology Corp (Malvern, PA, USA) KDA-21-279
T2 sequence (P56524 whole entry): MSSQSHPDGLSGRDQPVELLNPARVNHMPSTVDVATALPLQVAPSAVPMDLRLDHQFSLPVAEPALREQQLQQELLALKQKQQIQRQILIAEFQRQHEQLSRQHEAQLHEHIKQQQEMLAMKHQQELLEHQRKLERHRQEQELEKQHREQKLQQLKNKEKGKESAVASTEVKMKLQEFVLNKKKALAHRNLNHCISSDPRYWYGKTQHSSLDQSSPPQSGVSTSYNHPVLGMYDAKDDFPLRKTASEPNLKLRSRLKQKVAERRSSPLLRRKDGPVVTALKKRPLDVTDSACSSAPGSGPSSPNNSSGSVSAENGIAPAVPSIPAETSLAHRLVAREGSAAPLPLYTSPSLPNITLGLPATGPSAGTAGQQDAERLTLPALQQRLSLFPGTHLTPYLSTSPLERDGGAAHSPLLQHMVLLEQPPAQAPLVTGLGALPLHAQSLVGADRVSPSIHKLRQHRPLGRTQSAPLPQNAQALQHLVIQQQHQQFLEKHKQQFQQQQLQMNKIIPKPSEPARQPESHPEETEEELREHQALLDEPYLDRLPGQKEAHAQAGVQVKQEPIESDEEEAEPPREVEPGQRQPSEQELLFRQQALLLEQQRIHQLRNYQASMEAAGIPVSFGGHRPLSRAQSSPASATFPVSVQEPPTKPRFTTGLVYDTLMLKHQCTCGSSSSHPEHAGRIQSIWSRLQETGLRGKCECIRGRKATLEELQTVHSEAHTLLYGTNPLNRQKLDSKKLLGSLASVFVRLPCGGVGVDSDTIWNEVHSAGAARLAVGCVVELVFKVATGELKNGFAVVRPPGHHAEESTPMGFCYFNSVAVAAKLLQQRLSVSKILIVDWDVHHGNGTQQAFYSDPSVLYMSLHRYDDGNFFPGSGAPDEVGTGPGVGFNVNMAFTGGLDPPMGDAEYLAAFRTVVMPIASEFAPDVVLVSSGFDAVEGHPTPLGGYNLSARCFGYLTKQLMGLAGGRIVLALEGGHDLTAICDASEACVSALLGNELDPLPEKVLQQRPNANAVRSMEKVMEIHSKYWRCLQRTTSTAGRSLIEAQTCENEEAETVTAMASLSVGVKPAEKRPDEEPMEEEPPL
Description: as §2

HDAC 1-3 and 6 = test system: HDAC 1-3 and 6; design: method as in PMID 34582215; details: cited from earlier work
[6] = Homo sapiens, MTT, 72 h, compound alone, read-out: IC50 ± SD
[7] = Homo sapiens, J82, 72 h, MTT, 72 h, compound alone, read-out: IC50 ± SD
[8] = MTT, 72 h, compound alone, read-out: IC50 ± SD
[9] = Homo sapiens, 72 h, MTT, 72 h, compound alone, read-out: IC50 ± SD
[10] = Homo sapiens, T-24, MTT, 72 h, compound alone, read-out: IC50 ± SD
[11] = 7.5 µM of 20, without cisplatin (Figure 10, S17)
[12] = 72 h co-incubation with 0.316 µM ENT
[13] = MTT, 72 h, compound alone, listed as cisplatin, read-out: IC50 ± SD
[14] = read-out: Cisplatin IC50 ± SD, control: untreated 48 h, then cisplatin 72 h
[15] = read-out: Cisplatin IC50 ± SD, control: untreated 48 h, then cisplatin 72 h, listed as cisplatin
[16] = read-out: Cisplatin IC50 ± SD, control, then cisplatin 72 h

Cc1sc2c(c1C)C(c1ccc(Cl)cc1)=NC(CC(=O)OC(C)(C)C)c1nnc(C)n1-2 (stereo not drawn) [JQ1]
Bim gene expression, decadic logarithm of normalized expression (J82 [1]): 0.283
FOXO1 gene expression, decadic logarithm of normalized expression (J82 [1]): 0.260
FOXO3a gene expression, decadic logarithm of normalized expression (J82 [1]): 0.128
p21 gene expression, decadic logarithm of normalized expression (J82 [1]): 0.654
p53 gene expression, decadic logarithm of normalized expression (J82 [1]): -0.097
survivin gene expression, decadic logarithm of normalized expression (J82 [1]): -0.002
bioavailability ([2]; OTX015: oral, in contrast to JQ1): limited
half-life ([2]; in vivo, OTX015 in contrast to JQ1): very short
IC50 (T24 LTT; [6]): 0.6 ± 0.08 µM
fold lower IC50 in T24 LTT than T24 (T24 LTT; MTT, 72 h): 4 fold
SF (J82 [3]; 48 h preincubation with the other inhibitor (ENT after 1 µM JQ1; JQ1 after 0.316 µM ENT), then another 72 h): 1.28
SF (J82 [3]; 72 h co-incubation with the other epigenetic inhibitor: ENT with 1 µM JQ1, JQ1 with 0.316 µM ENT): 0.84
IC50 (J82 [3]; [7]): 21.5 ± 4.05 µM
IC50 (J82 [3]; Homo sapiens, J82, control of the 48 h preincubation scheme, compound 72 h, read-out: IC50 ± SD): 21.6 ± 4.99 µM
IC50 (J82 [3]; [8]): 18.8 ± 1.55 µM
SF (J82 cisR [4]; 48 h preincubation with the other inhibitor (ENT after 0.1 µM JQ1; JQ1 after 0.316 µM ENT), then another 72 h): 1.21
SF (J82 cisR [4]; 72 h co-incubation with the other epigenetic inhibitor: ENT with 0.1 µM JQ1, JQ1 with 0.316 µM ENT): 1.71
IC50 (J82 cisR [4]; [9]): 2.64 ± 0.52 µM
IC50 (J82 cisR [4]; Homo sapiens, control of the 48 h preincubation scheme, compound 72 h, read-out: IC50 ± SD): 2.41 ± 0.51 µM
fold lower sensitivity of J82 than J82 cisR (J82 cisR [4]; MTT, 72 h): 8.4 fold
IC50 (J82 cisR [4]; [8]): 2.22 ± 0.41 µM
IC50 (T24; [10]): 2.29 ± 0.42 µM
Bim gene expression, decadic logarithm of normalized expression (J82 cisR [5]): 0.534
FOXO1 gene expression, decadic logarithm of normalized expression (J82 cisR [5]): 0.410
FOXO3a gene expression, decadic logarithm of normalized expression (J82 cisR [5]): 0.438
p21 gene expression, decadic logarithm of normalized expression (J82 cisR [5]): 0.581
p53 gene expression, decadic logarithm of normalized expression (J82 cisR [5]): 0.347
survivin gene expression, decadic logarithm of normalized expression (J82 cisR [5]): 0.435
IC50 (HBLAK; Homo sapiens, 72 h, read-out: IC50 ± SD): 2.37 ± 0.41 µM
reduction of cell viability (HBLAK; entinostat and/or JQ1 in the absence of cisplatin (Figure 15a)): 60–65%
IC50 (HEK293; Homo sapiens, HEK293, MTT, 72 h, compound alone, read-out: IC50 ± SD): 1.41 ± 0.26 µM
reduction of cell viability (HEK293; entinostat and/or JQ1 in the absence of cisplatin (Figure 15b,c)): up to 20%

CCc1c(C(=O)Nc2cc(/C=C/C(=O)NO)ccc2OC)[nH]c(C)c1C(C)=O [compound 20]
inhibitory activity to BRDs (BRDs): single-digit micromolar range
decrease in cell viability (T24 LTT; [11]): 60–70%
IC50 (T24 LTT; [6]): 4.66 ± 0.41 µM
decrease in cell viability (J82 [3]; [11]): 60–70%
IC50 (J82 [3]; [7]): 7.17 ± 0.57 µM
decrease in cell viability (J82 cisR [4]; [11]): 60–70%
IC50 (J82 cisR [4]; [9]): 7 ± 0.49 µM
decrease in cell viability (T24; [11]): 60–70%
IC50 (T24; [10]): 6.95 ± 0.54 µM
caspase 3/7 activation (caspase 3/7): only weakly activated
IC50 (HDAC 8): 6.03 µM
IC50 (HDAC 4): 207 µM
inhibitory activity against HDAC 1-3 and 6 (HDAC 1-3 and 6): sub-micromolar

N.N.[Cl][Pt][Cl] [Cisplatin, cisplatin]
SF (T24 LTT; [12]): 1.71
SF (T24 LTT; 72 h co-incubation with 0.316 µM ENT + 0.075 µM JQ1): 1.55
IC50 (T24 LTT; [13]): 65.3 ± 4.17 µM
IC50 (T24 LTT; [8]): 72.2 ± 3.57 µM
cisplatin-resistance factor (T24 LTT; T24 LTT vs T24): 24
IC50 (T24 LTT; [14]): 75 ± 2.85 µM
IC50 (T24 LTT; [15]): 58.7 ± 2.6 µM
SF (J82 [3]; [12]): 1.74
SF (J82 [3]; 72 h co-incubation with 0.316 µM ENT + 1 µM JQ1): 3.05
SF (J82 [3]; 72 h co-incubation with 1 µM JQ1): 1.90
IC50 (J82 [3]; [13]): 2.49 ± 0.12 µM
IC50 (J82 [3]; [8]): 1.87 ± 0.06 µM
IC50 (J82 [3]; [14]): 2.16 µM and 3.02 µM
IC50 (J82 [3]; [15]): 2.98 ± 0.21 µM
SF (J82 cisR [4]; 72 h co-incubation with 0.1 µM JQ1): 0.98
SF (J82 cisR [4]; [12]): 1.60
SF (J82 cisR [4]; 72 h co-incubation with 0.316 µM ENT + 0.1 µM JQ1): 1.56
cisplatin-resistance factor (J82 cisR [4]; J82 cisR vs J82): 3.8
IC50 (J82 cisR [4]; [13]): 6.17 ± 0.23 µM
IC50 (J82 cisR [4]; [8]): 7.16 ± 0.24 µM
IC50 (J82 cisR [4]; [14]): 8.49 µM and 7.8 µM
IC50 (J82 cisR [4]; [15]): 7.64 ± 0.38 µM
SF (T24; 72 h co-incubation with 0.3 µM JQ1): 1.88
SF (T24; [12]): 1.02
SF (T24; 72 h co-incubation with 0.316 µM ENT + 0.3 µM JQ1): 1.54
IC50 (T24; [13]): 1.97 ± 0.06 µM
IC50 (T24; [8]): 2.99 ± 0.12 µM
IC50 (T24; [14]): 4.15 ± 0.12 µM
IC50 (T24; [15]): 3.23 ± 0.1 µM
IC50 (HBLAK; [8]): 1.71 ± 0.09 µM
IC50 (HBLAK; [16]): 3.38 ± 0.18 µM
IC50 (HEK293; [8]): 3.36 ± 0.09 µM
IC50 (HEK293; [16]): 6.26 ± 0.21 µM
